One data set has as its system B6D2F 1 mouse embryos. Briefly: Embryo development after transfer with peptide-supplemented medium (Example 7). The class given is in vivo. Conditions: blastocysts in KSOM medium with 32 µM Iznm-2, transferred to pseudopregnant ICR mice, examined at E14. The protocol: In order to examine the effect of the peptide medicament on embryo development, the following experiment was performed. ICR male mice at 8 weeks of age were vasectomized. ICR female mice in proestrus were mated with the vasectomized male mice, and the female mice having developed a copulation plug on the following day were used as pseudopregnant female mice. Two days after confirming the presence of the copulation plug, B6D2F 1 mouse embryos that had developed into blastocysts were transferred to the female mice. The blastocysts were added to KSOM medium supplemented with 32 µM Iznm-2 immediately before the transfer, and the embryos were transferred together with the medium. The amount of the medium injected into the uterus at the time of transfer was 5 µl or less. The embryo transfer was performed in the following manner. The pseudopregnant female mice were anesthetized, and the skin on one side in the dorsum and the abdominal wall of each mouse were incised to expose the uterus to the outside of the body. The uterus was pierced through with a 26-G needle, and the embryos were injected into the thus-formed hole together with the medium using a glass tube. After the transfer, the uterus was returned to the body, and the incision was sutured. The transferred embryos were allowed to develop in the recipient mice until E14. […]

A short description of data set [1]: Blood tests on maternal bodies after intraperitoneal administration. The following applies: female mice, 8 µM with respect to total weight, in corn oil, blood 24 hours after administration. It counts as in vivo. As for the experimental part:
An excess amount of Iznm-2 was administered intraperitoneally to female mice to examine the side effects of the peptide medicament. In Example 8, […] Iznm-2 was administered together with 5 µl or less of the embryos to the uterus of each mouse. In the present experiment, Iznm-2 was administered in such a manner that the concentration thereof would be 8 µM with respect to the total weight of each mouse. Iznm-2 was dissolved in corn oil. As a control, corn oil without the peptide medicament was administered. Blood samples were collected 24 hours after the administration, and blood components serving as indicators of the condition of the liver and kidney were analyzed.

Peptide text beside a SMILES is read from it. * marks the point of attachment. Myristoyl = CCCCCCCCCCCCCC(=O)*

On to `CCCCCCCCCCCCCC(=O)N[C@@H](CCCCN)C(=O)N[C@@H](Cc1ccccc1)C(=O)N[C@@H](CCC(=O)O)C(=O)N[C@@H](CCC(=O)O)C(=O)N[C@@H](CCC(=O)O)C(=O)N[C@@H](CCCNC(=N)N)C(=O)N[C@@H](CO)C(=O)N[C@@H](CCCNC(=N)N)C(=O)N[C@@H](CS)C(=O)N[C@@H](CCCCN)C(=O)N[C@@H](Cc1c[nH]c2ccccc12)C(=O)N[C@@H](CCSC)C(=O)N[C@H](C(=O)O)[C@@H](C)O` [Iznm-2, Myr-KFEEERSRCKWMT] (Myristoyl-KFEEERSRCKWMT-OH), for which the “development of transferred embryos” value in the data set on B6D2F 1 mouse embryos is reported as “developed normally”. Besides, the CRE in data set [1] (Kidney) turned out to be 0.12 mg/dL. Also, in data set [1] (Liver & Kidney), the LAP is 26 IU/L and the TP is recorded as 5.1 g/dL. In data set [1] (Liver), this compound had an A/G of 1.85, an ALB of 3.3 g/dL, an ALP of 463 IU/L and an ALT of 38 IU/L. In data set [1] (Liver), this compound yielded a ChE of 32.5 IU/L, a D-BIL of 0.02 mg/dL, an I-BIL of 0.02 mg/dL and a T-BIL of 0.08 mg/dL. This compound also returned a γ-GT in data set [1] (Liver) of 3 IU/L.

The values above are taken from patent EP4620480A1, “IMPLANTATION FACILITATOR, AND SCREENING SYSTEM THEREFOR” (Kansai Medical University Educational Corporation, priority 2022, dated 2025).
